The subject of experiment [1] is animal models of Alzheimer's disease. Conditions: ref 15 (Chocron et al.); cited from earlier work. The text has this: In the light of significant proteasome-enhancing effects of TAT peptides observed both in cellulo (Figure 5 and [15]) and in vivo [15], there is a crucial question of how they influence proteolytic activity in the most widespread form of the proteasome, the 26S holoenzyme. The most-explored TAT compounds are proposed to dock in the α1/α2 pocket, which, alongside the α5/α6 pocket, is permanently occupied in all conformational forms of the 26S assembly. Therefore, activation of the core already decorated with two 19S modules seems excluded. Still, in our in vitro experiments, a signif ...

Experiment [2] addresses T1, core proteasome, trypsin-like (T-L) activity (Homo sapiens, UniProt P25787+P60900).
T1 construct: Human housekeeping core (20S) proteasome purified from erythrocytes; purchased Boston Biochem, Inc. or Enzo Life Sciences, Inc; host or cells: human erythrocytes (natural source)
Nature of the experiment: T-L peptidase activity of latent 20S proteasome (Boc-LRR-AMC). Conditions: 100 μM Boc-LRR-AMC, n = 3–4. In kind it is biochemical. As to the method:
Human housekeeping core (20S) proteasome purified from erythrocytes was purchased from Boston Biochem, Inc. (Cambridge, MA) or from Enzo Life Sciences, Inc. (Farmingdale, NY). Multiple batches of the proteasomes were used and performed reproducibly. The stock proteasome was diluted to 0.2 mg/mL working solution in “dilution buffer” (50 mM Tris/HCl, pH 8, 20% glycerol). The following model peptide substrates, all releasing fluorescent 7-amino-4-methylcoumarin (AMC) reporter group after cleavage, were used: succinyl-LeuLeuValTyr-AMC (for the ChT-L peptidase; SucLLVY-AMC; Bachem Bioscience Inc., Philadelphia, PA), butoxycarbonyl-LeuArgArg-AMC (T-L; Bachem Bioscience Inc., Philadelphia, PA) and carbobenzoxy- LeuLeuGlu-AMC (PGPH; Enzo Life Sciences Inc., Farmingdale, NY). The substrates were used at concentration of 50 μM (ChT-L) or 100 μM (T-L, PGPH). […] After mixing, the plate was transferred to a Fluoroskan Ascent plate reader (Thermo Fisher Scientific Inc., Waltham, MA) for 1 h (37 °C), with fluorescence readouts once per minute. […] The reaction rates were calculated from a linear segment of kinetic curves constructed from measurements in 1-min intervals. Reaction rates were calculated using a linear fit performed with the Slope Analyser and Enzyme Kinetics applications launched within Origin Pro 2019 (OriginLab Corporation, Northampton, MA). […]

Entries after “also recorded” stand apart in the source; their conditions may differ.

Consider `N=C(N)NCCC[C@H](NC(=O)CN)C(=O)N[C@@H](CCCCN)C(=O)N[C@@H](CCCCN)C(=O)N[C@@H](CCCNC(=N)N)C(=O)N[C@@H](CCCNC(=N)N)C(=O)N[C@@H](CCC(N)=O)C(=O)N1Cc2ccccc2C[C@H]1C(=O)N1[C@@H](C(=O)N[C@@H](CCCNC(=N)N)C(=O)N2CCC[C@H]2C(=O)N[C@@H](CO)C(=O)O)C[C@H]2CCCC[C@H]21` [(5)], for which, in experiment [1], the “Proteins with increased turnover on treatment” value was “APP and β secretase”. The “Effect on T-L activity (in words)” value in experiment [2] is given as “weak inhibitory effects; also recorded: did not seem to significantly affect”.
Regarding `NCCCC[C@H](NC(=O)[C@H](CCCCN)NC(=O)[C@H](CCCCN)NC(=O)c1cc(NC(=O)[C@H](CCCCN)NC(=O)[C@H](CCCCN)NC(=O)[C@@H](N)CCCCN)cc(NC(=O)[C@H](CCCCN)NC(=O)[C@H](CCCCN)NC(=O)[C@@H](N)CCCCN)c1)C(=O)O` [(8)], the “Proteins with increased turnover on treatment” value in experiment [1] is “APP and β secretase”. Besides, the “Effect on T-L activity (in words)” value in experiment [2] is given as “weak inhibitory effects; also recorded: did not seem to significantly affect”.

Source of the values: PMC7145288, “New Peptide-Based Pharmacophore Activates 20S Proteasome” (Molecules, 2020).
